Here are results for two compounds from patent US9931313B2, “Methods of treating proliferative disorders with malate or derivatives thereof” (Beth Israel Deaconess Medical Center, Inc., priority 2012, dated 2018).

In one assay the test system is A549 cells. In words: Cisplatin treatment of A549 cells with or without ME2 knockdown, trypan blue count. The note with it: 20 μM cisplatin, 72 h. It counts as cell-based, human. As to the method: ME2 knockdown and control cells were plated in 6-well plates, and 24 h later, the cell were treated with 20 μM cisplatin. After 72 h, cells were stained with trypan blue and live cells were counted. […] Approximately 5×10^6 ME2 deficient cells from ME2 specific shRNA or control pLKO cells were subcutaneously implanted into female athymic nude mice as described in Materials and Methods. Tumor size was measured and calculated. C: Depletion of ME2 inhibits mucin-1 and vimentin expression and increase differentiation marker E-cadherin and ZO-1 expression in vivo.

The test system of the next assay is A549 xenograft tumors. In words: Cisplatin treatment of xenograft tumors from wild type and ME2 knockdown A549 cells. In kind it is in vivo, athymic nude mice. Here is the method: ME2 knockdown and control cells were plated in 6-well plates, and 24 h later, the cell were treated with 20 μM cisplatin. After 72 h, cells were stained with trypan blue and live cells were counted. […] Approximately 5×10^6 ME2 deficient cells from ME2 specific shRNA or control pLKO cells were subcutaneously implanted into female athymic nude mice as described in Materials and Methods. Tumor size was measured and calculated. C: Depletion of ME2 inhibits mucin-1 and vimentin expression and increase differentiation marker E-cadherin and ZO-1 expression in vivo. Animal experiments were performed under federal guidelines and approved by the Institutional Animal Care and Use Committee (IACUC) of the Beth Israel Deaconess Medical Center (Approval number 0342007). A549 xenografts in nude mice were generated by following the description of […] et al., in Biochem. Pharmacol. 72: 671-680 (2006). Briefly, approximately 10^7 ME2 deficient or control A549 cells resuspended in 200 μl of a serum-free culture medium/Matrigel mixture (1:1) were subcutaneously injected into the right and left flanks of male nude/nu/nu athymic mice, respectively. Tumor-bearing mice were sacrificed after 6-8 weeks and tumor masses were measured or imaged before excision. […]

Another assay has as its system K562 cell. The note with it: supplementation; Ren et al., PLoS One 5 (2010); cited from earlier work.

Consider `N.N.[Cl][Pt][Cl]` [cisplatin], for which the “sensitivity of A549 cells to cisplatin treatment with ME2 deficiency” value in the assay on A549 cells is recorded as “increased the sensitivity”. Also, in the assay on A549 xenograft tumors (ME2 knockdown A549 xenografts), the “later growth of ME2 knockdown tumors (resumed at about 350 mm^3)” value is given as “prevent this later tumor growth”. The “E-cadherin and mucin-1 expression in vivo” value in the assay on A549 xenograft tumors (combination of ME2 depletion and cisplatin) is reported as “affected”.

As for `O=C([O-])CC(O)C(=O)[O-].[Na+].[Na+]` (stereo not shown) [sodium malate], the K562 cell differentiation entry with K562 cell is listed as “failed to induce”.
